Laboratory results reported in patent publication US10351522B2, “Sulfonamide derivative and pharmaceutically acceptable acid addition salt thereof” (UNIVERSITY OF TSUKUBA, priority 2015, dated 2019).
Read-outs that look alike come from different tables or passages of the source.

How the values were obtained:
human OX2R = target: T1, human OX2R (Homo sapiens, UniProt O43614); experiment: Agonist activity against OX2R: intracellular calcium (Fura-2AM, FDSS7000) in CHOOX2R cells; format: cell-based; conditions: relative to orexin-A as full agonist (100%)
T1 construct: expressed in transfected cells; host or cells: CHO (Chinese hamster ovary) cells, line CHOOX2R, co-expressing NFAT-luciferase
T1 sequence (O43614 1-444): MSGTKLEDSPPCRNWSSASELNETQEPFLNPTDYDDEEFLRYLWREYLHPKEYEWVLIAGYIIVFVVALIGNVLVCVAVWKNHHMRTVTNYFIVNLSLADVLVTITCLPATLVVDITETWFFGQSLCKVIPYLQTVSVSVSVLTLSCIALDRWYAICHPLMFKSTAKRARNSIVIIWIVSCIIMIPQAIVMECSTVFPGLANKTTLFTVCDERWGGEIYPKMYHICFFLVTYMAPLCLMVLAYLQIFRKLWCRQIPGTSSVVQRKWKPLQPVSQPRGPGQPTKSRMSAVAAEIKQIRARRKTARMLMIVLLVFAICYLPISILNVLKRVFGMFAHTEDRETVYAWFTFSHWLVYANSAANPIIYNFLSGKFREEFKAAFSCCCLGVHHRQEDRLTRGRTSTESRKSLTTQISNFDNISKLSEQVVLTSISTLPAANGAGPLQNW
Protocol: (§1) Evaluation of Agonist Activity Against OX1R and OX2R
(§2) NAFT-luciferase gene and human OX1R gene were constitutively expressed in CHO cell, which is a cell line derived from Chinese hamster ovary to establish a cell line (CHOOX1R) and NAFT-luciferase gene and human OX2R gene were constitutively expressed in CHO cell to establish a cell line (CHOOX2R). The respective cells were seeded in a 96-well Multiplate at 10,000 cells/well and cultured in a 5% FBS (Thermo Scientific)-added DMEM medium (Sigma-Aldrich) for 48 hr. The medium was removed, an assay buffer (20 mM HEPES (Sigma-Aldrich), Hanks' balanced salt solution (Gibco), 0.1% BSA (Sigma-Aldrich), 2.5 mM probenecid acid (Wako Pure Chemical Industries, Ltd.)) (100 μL) containing 5 μM Fura-2AM (Cayman Chemical) was added, and the cells were incubated for 60 min. The buffer containing Fura-2AM was removed, and an assay buffer (75 μL) was added. An assay buffer (25 μL) containing a test compound was added thereto to start the reaction. Changes in the intracellular calcium ion concentration due to the reaction were measured by measuring the fluorescence intensity ratio by dual wavelength excitation at 340 and 380 nm, by using FDSS7000 (Hamamatsu Photonics K.K.). The test compound was dissolved in DMSO to 10 mM, and diluted with the assay buffer to a final concentration of 10^−7M to 10^−5M (final concentration of DMSO 1%).
(§3) (As used herein, Response in Table 21 to Table 27 is a value obtained by dividing the agonist activity value, when the test compound is evaluated with orexin-A as a full-agonist (maximum value of agonist activity: 100%), at 10 μM, 1.0 μM, 0.1 μM by the agonist activity value of orexin-A.)

human OX1R = target: T2, human OX1R (Homo sapiens, UniProt O43613); experiment: Agonist activity against OX1R: intracellular calcium (Fura-2AM, FDSS7000) in CHOOX1R cells; format: cell-based; conditions: for Emax at 0.1 µM / Emax at 1 µM / Emax at 10 µM: read-out: Response (%) OX1R
T2 construct: expressed in transfected cells; host or cells: CHO (Chinese hamster ovary) cells, line CHOOX1R, co-expressing NFAT-luciferase
T2 sequence (O43613 1-425): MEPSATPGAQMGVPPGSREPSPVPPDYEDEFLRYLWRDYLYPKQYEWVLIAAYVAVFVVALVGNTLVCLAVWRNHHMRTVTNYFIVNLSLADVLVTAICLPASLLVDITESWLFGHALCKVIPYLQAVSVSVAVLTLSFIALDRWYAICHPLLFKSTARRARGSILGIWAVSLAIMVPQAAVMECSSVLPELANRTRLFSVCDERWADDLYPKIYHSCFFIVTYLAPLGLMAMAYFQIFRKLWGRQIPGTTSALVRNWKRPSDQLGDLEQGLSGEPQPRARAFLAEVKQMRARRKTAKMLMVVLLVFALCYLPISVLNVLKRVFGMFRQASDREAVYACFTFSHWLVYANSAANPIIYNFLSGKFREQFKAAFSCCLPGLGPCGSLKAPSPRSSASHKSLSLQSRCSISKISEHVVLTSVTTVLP
Protocol: as §1, §2, §3

[1] = 0.1 μM test compound, relative to orexin-A as full agonist (100%)
[2] = 1.0 μM test compound, relative to orexin-A as full agonist (100%)
[3] = 10 μM test compound, relative to orexin-A as full agonist (100%)
[4] = test compound 0.1 μM, relative to orexin-A as full agonist (100%)
[5] = test compound 1.0 μM, relative to orexin-A as full agonist (100%)
[6] = test compound 10 μM, relative to orexin-A as full agonist (100%)

Structure (SMILES) | Response (%) OX2R (human OX2R; 0.1 μM test compound) [%] | Response (%) OX2R (human OX2R; 1.0 μM test compound) [%] | Response (%) OX2R (human OX2R; 10 μM test compound) [%] | Response (%) OX1R (human OX1R; [1]) [%] | Response (%) OX1R (human OX1R; [2]) [%] | Response (%) OX1R (human OX1R; [3]) [%] | Response (%) OX2R (human OX2R; test compound 0.1 μM) [%] | Response (%) OX2R (human OX2R; test compound 1.0 μM) [%] | Response (%) OX2R (human OX2R; test compound 10 μM) [%] | further results
COC(=O)c1cccc(NC(=O)Nc2cccc(NS(=O)(=O)c3cc(-c4cccc(C(=O)N(C)C)c4)ccc3OC)c2)c1 [Example 45] | 82 | 97 | 100 | <5 | <5 | <5 |  |  |  | 
COc1ccc(C(=O)NCCCNC(=O)OC(C)(C)C)cc1S(=O)(=O)Nc1cccc(NC(=O)Nc2cccc(N(C)C)c2)c1 [Example 104] |  |  |  |  |  |  | 7 | 79 | 99 | Response (%) OX1R (human OX1R; [4]): 7%; Response (%) OX1R (human OX1R; [5]): 6%; Response (%) OX1R (human OX1R; [6]): 7%
C=CC(=O)NCCN(C(=O)C=C)c1cccc(NS(=O)(=O)c2cc(-c3cccc(C(=O)N(C)C)c3)ccc2OC)c1 [Example 94, 3′-(N-(3-(N-(2-acrylamidoethyl)acrylamido)phenyl)sulfamoyl)-4′-methoxy-N,N-dimethyl-[1,1′-biphenyl]-3-carboxamide] |  |  |  |  |  |  | <5 | <5 | 46 | Emax at 0.1 µM (human OX1R; [4]): < 5%; Emax at 1 µM (human OX1R; [5]): < 5%; Emax at 10 µM (human OX1R; [6]): < 5%
COc1ccc(-c2cccc(C(=O)N(C)C)c2)cc1S(=O)(=O)Nc1cccc(NC(=O)c2ccc(N(C)C)cc2)c1 [Example 8] | 8 | 13 | 61 | 9 | 8 | 27 |  |  |  | 
COc1ccc(-c2cccc(C(=O)N(C)C)c2)cc1S(=O)(=O)Nc1cccc(NC(=O)c2ccc3c(c2)OCO3)c1 [Example 5] | 10 | 8 | 19 | 8 | 8 | 7 |  |  |  | 
COc1ccc(-c2cccc(C(=O)N(C)C)c2)cc1S(=O)(=O)Nc1cccc(NC(=O)Nc2ccccc2N(C)C)c1 [Example 41] | 17 | 93 | 102 | <5 | <5 | <5 |  |  |  | 
COc1ccc(-c2cccc(C(=O)N(C)C)c2)cc1S(=O)(=O)Nc1cccc(NC(=O)c2ccccc2)c1 [Example 1, 3′-(N-(3-benzamidophenyl)sulfamoyl)-4′-methoxy-N,N-dimethyl-[1,1′-biphenyl]-3-carboxamide] | <5 | 6 | 67 |  |  |  |  |  |  | Emax at 0.1 µM (human OX1R; [1]): < 5%; Emax at 1 µM (human OX1R; [2]): < 5%; Emax at 10 µM (human OX1R; [3]): < 5%
COc1ccc(-c2cccc(C(=O)N(C)C)c2)cc1S(=O)(=O)Nc1cccc(NC(=S)Nc2cccc(C)c2)c1 [Example 76] | 93 | 90 | 89 | <5 | 20 | 55 |  |  |  | 
COc1ccc(-c2cccc(C(=O)N(C)C)c2)cc1S(=O)(=O)Nc1cccc(Nc2c(Nc3ccc(C)cc3)c(=O)c2=O)c1 [Example 84] |  |  |  |  |  |  | 6 | 6 | 21 | Response (%) OX1R (human OX1R; [4]): <5%; Response (%) OX1R (human OX1R; [5]): <5%; Response (%) OX1R (human OX1R; [6]): 10%
COc1ccc(-c2cccc(C(=O)N(C)C)c2)cc1S(=O)(=O)Nc1cccc(NC(=O)Nc2ccc(NC(=N)N)cc2)c1 [Example 60] | <5 | <5 | 31 | <5 | <5 | <5 |  |  |  | 
COc1ccc(-c2cccc(C(=O)N(C)C)c2)cc1S(=O)(=O)Nc1cccc(NC(=O)Nc2cccc(NC(=N)N)c2)c1 [Example 65] | <5 | <5 | 6 | <5 | <5 | <5 |  |  |  | 
COc1ccc(-c2cccc(C(=O)N(C)C)c2)cc1S(=O)(=O)Nc1cccc(NC(=O)OCc2ccccc2)c1 [Example 73] | 25 | 49 | 11 | 6 | 6 | <5 |  |  |  | 
COc1ccc(-c2cccc(C(=O)N(C)C)c2)cc1S(=O)(=O)Nc1cccc(NC(=O)c2cccc(N(C)C)c2)c1 [Example 7] | 8 | 10 | 24 | 6 | 8 | 27 |  |  |  | 
COc1ccc(C(=O)NCc2cccnc2)cc1S(=O)(=O)Nc1cccc(NC(=O)Nc2cccc(N(C)C)c2)c1 [Example 103] |  |  |  |  |  |  | 4 | 27 | 84 | Response (%) OX1R (human OX1R; [4]): <5%; Response (%) OX1R (human OX1R; [5]): <5%; Response (%) OX1R (human OX1R; [6]): <5%
COc1ccc(-c2cccc(C(=O)N(C)C)c2)cc1S(=O)(=O)Nc1cccc(NC(=O)Nc2cccc(N(C)C)c2)c1OC [Example 123, 3′-(N-(3-(3-(3-(dimethylamino)phenyl)ureido)-2-methoxyphenyl)sulfamoyl)-4′-methoxy-N,N-dimethyl-[1,1′-biphenyl]-3-carboxamide] |  |  |  |  |  |  | 63 | 111 | 111 | Emax at 0.1 µM (human OX1R): < 5%; Emax at 1 µM (human OX1R): 6%; Emax at 10 µM (human OX1R): < 5%
CCN(Cc1ccccc1)C(=O)c1ccc(OC)c(S(=O)(=O)Nc2cccc(NC(=O)Nc3ccc(N(C)C)cc3)c2)c1 [Example 110] |  |  |  |  |  |  | 38 | 86 | 109 | Response (%) OX1R (human OX1R; [4]): <5%; Response (%) OX1R (human OX1R; [5]): <5%; Response (%) OX1R (human OX1R; [6]): <5%
CCCOc1ccc(-c2cccc(C(=O)N(C)C)c2)cc1S(=O)(=O)Nc1cccc(NC(=O)Nc2cccc(N(C)C)c2)c1 [Example 120] |  |  |  |  |  |  | 29 | 84 | 103 | Response (%) OX1R (human OX1R; [4]): <5%; Response (%) OX1R (human OX1R; [5]): <5%; Response (%) OX1R (human OX1R; [6]): <5%
CCOc1ccc(-c2cccc(C(=O)N(C)C)c2)cc1S(=O)(=O)Nc1cccc(NC(=O)Nc2cccc(N(C)C)c2)c1 [Example 119, 3′-(N-(3-(3-(3-(dimethylamino)phenyl)ureido)phenyl)sulfamoyl)-4′-ethoxy-N,N-dimethyl-[1,1′-biphenyl]-3-carboxamide] |  |  |  |  |  |  | 49 | 85 | 98 | Emax at 0.1 µM (human OX1R; [4]): < 5%; Emax at 1 µM (human OX1R; [5]): < 5%; Emax at 10 µM (human OX1R; [6]): < 5%
